The nature of data set [1]: Drug concentration in CB17 SCID mouse brain at 100 mg/kg after 0.25 to 24 hrs. Conditions: in vivo, read-out: Drug uptake. In kind it is ADME, organism-based.
Data set [2] concerns the target T1, Activin receptor type-1 (Homo sapiens, UniProt Q04771).
T1 sequence (Q04771 whole entry): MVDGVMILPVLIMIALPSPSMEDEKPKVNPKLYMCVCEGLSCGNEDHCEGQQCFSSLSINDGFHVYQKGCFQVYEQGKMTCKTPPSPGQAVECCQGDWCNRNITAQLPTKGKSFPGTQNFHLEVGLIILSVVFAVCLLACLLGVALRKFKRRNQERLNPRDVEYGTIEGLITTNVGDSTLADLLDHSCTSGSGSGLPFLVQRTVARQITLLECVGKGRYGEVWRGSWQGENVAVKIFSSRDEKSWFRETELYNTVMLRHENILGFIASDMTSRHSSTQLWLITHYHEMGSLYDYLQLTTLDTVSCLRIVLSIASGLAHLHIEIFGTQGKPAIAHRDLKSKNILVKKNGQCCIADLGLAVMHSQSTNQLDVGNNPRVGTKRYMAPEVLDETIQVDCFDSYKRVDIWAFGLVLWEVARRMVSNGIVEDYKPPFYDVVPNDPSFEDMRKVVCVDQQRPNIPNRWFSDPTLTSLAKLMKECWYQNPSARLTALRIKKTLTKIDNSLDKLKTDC
Kind of data set: Competitive displacement of PBI-6908 from nanoluciferase-fused ALK2 (unknown origin) expressed in HEK293 cells incubated for 2 hrs by NanoBRET NanoGlo substrate based NanoBRET assay. In kind it is cell-based. (In general: In BRET a luciferase serves as donor, and the signal depends on an acceptor being close.)

In data set [3] the target is Voltage-gated inwardly rectifying potassium channel KCNH2 (Homo sapiens, UniProt Q12809). The data set is described as follows: Inhibition of human ERG expressed in HEK293 cells after 5 mins by IonWorks barracuda patch clamp method. It counts as cell-based.
Sequence of Voltage-gated inwardly rectifying potassium channel KCNH2 (Q12809 whole entry): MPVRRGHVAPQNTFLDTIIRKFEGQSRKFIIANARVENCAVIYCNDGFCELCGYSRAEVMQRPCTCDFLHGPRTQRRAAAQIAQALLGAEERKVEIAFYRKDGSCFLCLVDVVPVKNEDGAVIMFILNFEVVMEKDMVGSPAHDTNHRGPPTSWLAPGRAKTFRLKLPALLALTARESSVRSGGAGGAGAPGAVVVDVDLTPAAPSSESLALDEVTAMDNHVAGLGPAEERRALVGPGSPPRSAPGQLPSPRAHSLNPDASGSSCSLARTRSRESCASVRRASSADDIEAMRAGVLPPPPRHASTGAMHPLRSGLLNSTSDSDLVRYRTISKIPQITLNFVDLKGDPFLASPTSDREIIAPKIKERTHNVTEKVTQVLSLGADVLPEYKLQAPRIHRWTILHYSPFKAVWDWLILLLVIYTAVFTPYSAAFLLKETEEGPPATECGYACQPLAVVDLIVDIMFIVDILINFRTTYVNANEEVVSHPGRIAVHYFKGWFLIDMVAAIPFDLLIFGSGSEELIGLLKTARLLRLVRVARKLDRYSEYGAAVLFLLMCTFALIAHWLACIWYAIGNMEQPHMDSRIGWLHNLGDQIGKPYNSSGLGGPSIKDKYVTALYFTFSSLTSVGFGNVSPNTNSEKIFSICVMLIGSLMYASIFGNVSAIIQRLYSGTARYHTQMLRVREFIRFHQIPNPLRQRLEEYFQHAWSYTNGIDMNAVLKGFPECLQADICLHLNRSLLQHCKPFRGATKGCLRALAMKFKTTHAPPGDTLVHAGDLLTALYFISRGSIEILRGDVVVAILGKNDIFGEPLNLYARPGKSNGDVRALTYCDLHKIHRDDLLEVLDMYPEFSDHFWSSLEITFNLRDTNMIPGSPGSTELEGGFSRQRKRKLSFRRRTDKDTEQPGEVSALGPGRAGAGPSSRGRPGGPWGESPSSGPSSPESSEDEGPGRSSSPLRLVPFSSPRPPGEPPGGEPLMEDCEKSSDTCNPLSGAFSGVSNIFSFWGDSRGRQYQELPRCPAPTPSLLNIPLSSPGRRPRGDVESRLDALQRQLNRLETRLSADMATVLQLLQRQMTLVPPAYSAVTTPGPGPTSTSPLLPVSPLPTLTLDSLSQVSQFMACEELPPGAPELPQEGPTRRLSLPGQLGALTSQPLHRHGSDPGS
The target in data set [4] is T2, TGF-beta receptor type-1 (Homo sapiens, UniProt P36897).
T2 sequence (P36897 whole entry): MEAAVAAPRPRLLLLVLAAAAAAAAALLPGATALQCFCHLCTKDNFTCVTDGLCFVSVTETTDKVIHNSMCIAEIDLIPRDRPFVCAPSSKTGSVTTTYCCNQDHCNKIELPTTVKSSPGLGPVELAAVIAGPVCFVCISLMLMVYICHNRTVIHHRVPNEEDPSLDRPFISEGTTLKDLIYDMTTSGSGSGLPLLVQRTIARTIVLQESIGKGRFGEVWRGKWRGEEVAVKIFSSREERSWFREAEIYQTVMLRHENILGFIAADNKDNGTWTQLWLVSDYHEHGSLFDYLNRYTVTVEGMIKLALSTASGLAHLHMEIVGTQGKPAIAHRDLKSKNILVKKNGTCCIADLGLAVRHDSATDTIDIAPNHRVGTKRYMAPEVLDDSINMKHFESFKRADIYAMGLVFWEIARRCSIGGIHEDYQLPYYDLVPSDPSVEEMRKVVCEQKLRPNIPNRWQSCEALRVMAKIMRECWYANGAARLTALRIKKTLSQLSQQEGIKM
The data set is described as follows: Inhibition of recombinant human ALK5 expressed in HEK293 cells transfected with CAGA-luciferase and Renilla luciferase reporter after 24 hrs by dual luciferase reporter assay. It counts as cell-based. Background: Reporter assays use an easily measured gene product as a stand-in for the process of interest.

In data set [5] the target is Serine/threonine-protein kinase NLK (Homo sapiens, UniProt Q9UBE8). Kind of data set: Inhibition of NLK (unknown origin).
Data set [6] concerns the target Cytochrome P450 2C19 (Homo sapiens, UniProt P33261). The data set is described as follows: Inhibition of CYP2C19 in human liver microsomes using mephenytoin as substrate incubated for 20 mins in presence of NADPH by LC/MS/MS analysis. In kind it is ADME. A general note: Microsomes from liver hold many membrane-bound enzymes, among them those of drug oxidation.
The target in data set [7] is T3, Alpha-2A adrenergic receptor (Homo sapiens, UniProt P08913). The data set is described as follows: Inhibition of recombinant human adrenergic alpha2A receptor at 10 uM incubated for 60 mins by scintillation counting method relative to control.
T3 sequence (P08913 whole entry): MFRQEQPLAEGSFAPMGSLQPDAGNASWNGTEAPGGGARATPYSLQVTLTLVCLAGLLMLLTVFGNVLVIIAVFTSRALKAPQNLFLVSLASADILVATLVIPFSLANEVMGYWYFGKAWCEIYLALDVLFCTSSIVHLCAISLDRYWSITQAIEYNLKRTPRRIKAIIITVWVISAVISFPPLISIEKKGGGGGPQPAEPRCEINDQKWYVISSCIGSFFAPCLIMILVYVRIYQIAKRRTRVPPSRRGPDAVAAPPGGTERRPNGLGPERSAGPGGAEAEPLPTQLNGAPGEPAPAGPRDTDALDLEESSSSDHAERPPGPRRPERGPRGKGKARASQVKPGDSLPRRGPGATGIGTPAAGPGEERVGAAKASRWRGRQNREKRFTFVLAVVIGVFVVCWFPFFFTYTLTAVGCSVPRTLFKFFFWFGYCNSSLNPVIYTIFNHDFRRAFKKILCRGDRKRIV
Data set [8] addresses T3, Alpha-2A adrenergic receptor. Kind of data set: Inhibition of recombinant human adrenergic alpha2A receptor incubated for 60 mins by scintillation counting method.
The test system of data set [9] is sodium channel site 2. Kind of data set: Inhibition of rat sodium channel site2 at 10 uM incubated for 60 mins by scintillation counting method.
A short description of data set [10]: Toxicity in C57BL/6 mouse assessed as mouse death at 25 mg/kg, po BID administered for 5 days measured after 24 hrs. It counts as organism-based. Conditions: in vivo.
Data set [11] can be described thus: Toxicity in C57BL/6 mouse assessed as body weight loss at 50 mg/kg, po QD administered for 5 days measured after 24 hrs relative to control. It counts as organism-based. Conditions: in vivo.
Data set [12] can be described thus: Toxicity in C57BL/6 mouse assessed as gross pathology at 100 mg/kg, po QD administered for 5 days measured after 24 hrs relative to control. In kind it is organism-based. Conditions: in vivo.
Data set [13] in a line: Plasma concentration in CD-1 mouse at 1 mg/kg, iv measured at 2 hrs by LC/MS/MS method. It counts as ADME, organism-based.
Data set [14] has as its target Cytochrome P450 2B6 (Homo sapiens, UniProt P20813). Kind of data set: Inhibition of CYP2B6 in human liver microsomes using bupropion as substrate incubated for 20 mins in presence of NADPH by LC/MS/MS analysis. It counts as ADME.
Data set [15] in a line: Drug level in CD-1 mouse brain at 1 mg/kg, iv measured at 2 hrs. In kind it is ADME, organism-based. Conditions: read-out: Drug uptake.
Data set [16] can be described thus: Toxicity in C57BL/6 mouse assessed as mouse death at 100 mg/kg, po QD administered for 5 days measured after 24 hrs. In kind it is organism-based. The settings on record: in vivo.
Data set [17] is described as follows: Unbound plasma concentration in CD-1 mouse […] at 1 mg/kg, iv measured at 2 hrs by LC/MS/MS method. It counts as ADME, organism-based. The settings on record: in vivo.
Data set [18] is described as follows: Protein binding in CD-1 mouse plasma at 1 mg/kg, iv measured at 2 hrs by LC/MS/MS method. In kind it is ADME, organism-based. The settings on record: read-out: PPB.
Data set [19] in a line: Mutagenicity in Salmonella typhimurium by mini Ames test. It counts as toxicity. The settings on record: salmonella enterica subsp. enterica serovar typhimurium.
The nature of data set [20]: Ratio of drug level in brain to plasma in CB17 SCID mouse at 25 mg/kg, po measured at 4 h. It counts as ADME, organism-based. Conditions: read-out: BPR.
Data set [21] deals with hERG (KCNH2) (Homo sapiens, UniProt Q12809). Kind of data set: Displacement of [3H]dofetilide from recombinant human ERG at 10 uM after 60 mins by scintillation counting analysis. Conditions: probe [3H]dofetilide.
Sequence of hERG (KCNH2) (Q12809 whole entry): as the sequence (Q12809 whole entry) above
Data set [22] in a line: Toxicity in C57BL/6 mouse assessed as mouse death at 25 mg/kg, po QD administered for 5 days measured after 24 hrs. Conditions: in vivo. It counts as organism-based.
Data set [23] concerns the target Cannabinoid receptor 1 (CB1) (Homo sapiens, UniProt P21554). Kind of data set: Inhibition of recombinant human CB1 at 10 uM incubated for 60 mins by scintillation counting method.
Data set [24] is described as follows: Toxicity in C57BL/6 mouse assessed as body weight loss at 25 mg/kg, po BID administered for 5 days measured after 24 hrs relative to control. Conditions: in vivo. In kind it is organism-based.
The nature of data set [25]: Ratio of drug level in brain to plasma in CB17 SCID mouse at 50 mg/kg, po measured at 4 h. It counts as ADME, organism-based. Conditions: read-out: BPR.
The target of data set [26] is Cytochrome P450 3A4 (Homo sapiens, UniProt P08684). The data set is described as follows: Inhibition of CYP3A4 in human liver microsomes using midazolam as substrate incubated for 5 mins in presence of NADPH by LC/MS/MS analysis. In kind it is ADME.
Sequence of Cytochrome P450 3A4 (P08684 whole entry): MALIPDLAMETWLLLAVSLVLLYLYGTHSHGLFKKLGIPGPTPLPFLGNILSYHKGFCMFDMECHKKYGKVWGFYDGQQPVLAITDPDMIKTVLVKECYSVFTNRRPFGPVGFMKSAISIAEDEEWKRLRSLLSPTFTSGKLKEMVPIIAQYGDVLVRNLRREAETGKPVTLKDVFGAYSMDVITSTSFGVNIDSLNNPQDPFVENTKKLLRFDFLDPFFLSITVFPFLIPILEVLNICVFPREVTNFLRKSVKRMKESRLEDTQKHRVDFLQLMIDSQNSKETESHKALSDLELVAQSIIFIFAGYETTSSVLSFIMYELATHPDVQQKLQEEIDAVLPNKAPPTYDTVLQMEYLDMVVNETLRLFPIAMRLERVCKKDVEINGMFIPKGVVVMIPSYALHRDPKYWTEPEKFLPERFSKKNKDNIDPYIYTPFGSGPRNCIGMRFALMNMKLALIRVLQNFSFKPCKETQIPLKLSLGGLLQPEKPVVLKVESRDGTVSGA
Data set [27] addresses Alpha-1A adrenergic receptor (Rattus norvegicus, UniProt P43140). The data set is described as follows: Inhibition of rat adrenergic alpha1A receptor at 10 uM relative to control.

This note sets out measurements from ChEMBL document CHEMBL4622974, “Leveraging an Open Science Drug Discovery Model to Develop CNS-Penetrant ALK2 Inhibitors for the Treatment of Diffuse Intrinsic Pontine Glioma” (J Med Chem, 2020).

Sequence of Alpha-1A adrenergic receptor (P43140 whole entry): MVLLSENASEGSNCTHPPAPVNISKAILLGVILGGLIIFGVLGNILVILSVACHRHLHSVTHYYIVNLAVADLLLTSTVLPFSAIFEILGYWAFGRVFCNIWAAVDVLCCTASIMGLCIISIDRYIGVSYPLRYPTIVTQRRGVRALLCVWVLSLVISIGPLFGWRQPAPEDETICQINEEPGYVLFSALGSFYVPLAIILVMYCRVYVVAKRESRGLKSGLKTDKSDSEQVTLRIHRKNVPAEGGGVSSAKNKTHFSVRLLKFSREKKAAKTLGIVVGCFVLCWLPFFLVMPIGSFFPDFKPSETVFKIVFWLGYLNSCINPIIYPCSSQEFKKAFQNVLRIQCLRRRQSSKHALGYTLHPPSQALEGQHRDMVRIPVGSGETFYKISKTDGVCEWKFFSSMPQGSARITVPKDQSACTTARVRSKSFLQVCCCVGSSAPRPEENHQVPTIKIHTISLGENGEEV
Sequence of Cannabinoid receptor 1 (CB1) (P21554 whole entry): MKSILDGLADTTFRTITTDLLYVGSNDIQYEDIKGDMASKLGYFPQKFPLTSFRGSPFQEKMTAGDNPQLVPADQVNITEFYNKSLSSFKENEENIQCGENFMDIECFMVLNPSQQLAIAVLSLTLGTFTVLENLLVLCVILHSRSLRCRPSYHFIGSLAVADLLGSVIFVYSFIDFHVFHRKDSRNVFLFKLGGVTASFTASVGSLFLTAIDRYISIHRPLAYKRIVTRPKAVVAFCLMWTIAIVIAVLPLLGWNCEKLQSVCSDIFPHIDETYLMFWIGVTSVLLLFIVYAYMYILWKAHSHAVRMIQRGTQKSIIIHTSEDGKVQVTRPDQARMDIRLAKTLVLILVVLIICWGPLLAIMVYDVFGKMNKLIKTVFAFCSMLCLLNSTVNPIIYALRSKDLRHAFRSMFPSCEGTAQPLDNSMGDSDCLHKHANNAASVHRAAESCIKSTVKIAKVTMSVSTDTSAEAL
Sequence of Cytochrome P450 2B6 (P20813 whole entry): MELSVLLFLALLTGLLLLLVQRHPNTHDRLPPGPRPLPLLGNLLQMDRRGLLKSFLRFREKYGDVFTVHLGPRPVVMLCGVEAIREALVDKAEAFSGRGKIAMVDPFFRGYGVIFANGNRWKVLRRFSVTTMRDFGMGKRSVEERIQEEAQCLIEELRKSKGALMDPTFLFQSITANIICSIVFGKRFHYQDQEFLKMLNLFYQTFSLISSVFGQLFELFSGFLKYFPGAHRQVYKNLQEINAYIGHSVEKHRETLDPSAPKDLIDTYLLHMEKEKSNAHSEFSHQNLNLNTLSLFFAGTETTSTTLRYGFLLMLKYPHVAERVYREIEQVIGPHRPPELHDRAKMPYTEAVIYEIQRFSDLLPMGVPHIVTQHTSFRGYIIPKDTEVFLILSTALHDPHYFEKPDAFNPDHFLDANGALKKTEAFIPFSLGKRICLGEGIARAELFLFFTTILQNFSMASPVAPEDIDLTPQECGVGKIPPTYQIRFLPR

One may read the IC50 as the concentration that gives 50% inhibition. Turning to `COc1cc(-c2cncc(-c3ccc(C4CCN(C)CC4)cc3)c2C)cc(OC)c1OC`, in [1], the concentration was found to be 39000 nM. Moreover, the IC50 in data set [2] came out at 0.029 µM; in data set [3] it was 4.8 µM; in data set [4] it was 3.33 µM.
A word on the inhibition: it is the share of the control response that was lost under treatment. On to `COc1cc(-c2cncc(-c3ccc(N4CCNCC4)cc3)c2C)cc(OC)c1OC`, for which the IC50 is 0.336 to 0.924 µM in data set [5]; more than 30 µM in data set [6]; 2.18 µM in data set [8]; more than 30 µM in data set [14]; more than 30 µM in data set [26]. The inhibition at 1 h, 10 µM in [7] came out at 90%; in [9] it was 72%; in data set [21], 69%; in [23], 97%. Also, the Activity entry in data set [10], in data set [11], in data set [12], in data set [16], in data set [19] and in [22] was “Non-Toxic” in each case. Further, the Activity entry in data set [24] is “Non-Toxic”. The concentration at 2 h in data set [13] worked out at 156 nM; in data set [15] it was 123 nM. Besides, in [17], the “Cp(f)” value turned out to be 14 nM. In [18], the fraction unbound at 2 h turned out to be 0.09. In addition, the Kp at 4 h in [20] stood at 1.5; in data set [25], 1.8. Besides, the inhibition at 10 µM in data set [27] was 65%.
